These molecules were tested against Substance-P receptor (Homo sapiens, UniProt P25103) (assay: Tested for binding affinity by measuring displacement of [125I]SP from human NK-1 receptor in CHO Cells).
Sequence of Substance-P receptor (P25103 whole entry): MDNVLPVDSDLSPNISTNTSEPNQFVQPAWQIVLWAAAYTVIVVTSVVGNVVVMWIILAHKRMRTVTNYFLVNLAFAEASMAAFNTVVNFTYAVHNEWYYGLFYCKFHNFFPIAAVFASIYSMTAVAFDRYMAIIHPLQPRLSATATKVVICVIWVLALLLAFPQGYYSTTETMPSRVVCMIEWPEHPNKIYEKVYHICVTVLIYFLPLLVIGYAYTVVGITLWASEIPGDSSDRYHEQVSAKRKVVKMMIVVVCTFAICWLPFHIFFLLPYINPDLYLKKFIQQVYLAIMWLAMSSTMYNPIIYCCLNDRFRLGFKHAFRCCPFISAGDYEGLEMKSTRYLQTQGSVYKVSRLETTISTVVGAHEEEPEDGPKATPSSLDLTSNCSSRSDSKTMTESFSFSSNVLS
For `FC(F)(F)c1cc(CO[C@@H]2C3CCN(CC3)[C@H]2C(c2ccccc2)c2ccccc2)cc(C(F)(F)F)c1`, the IC50 was 270 nM.
`FC(F)(F)c1cc(CO[C@@H]2C3CCN(CC3)[C@@H]2C(c2ccccc2)c2ccccc2)cc(C(F)(F)F)c1` gave an IC50 of 570 nM.
`FC(F)(F)c1cc(CO[C@H]2C3CCN(CC3)[C@@H]2C(c2ccccc2)c2ccccc2)cc(C(F)(F)F)c1` showed an IC50 of 0.7 nM.
Work on `FC(F)(F)c1cc(CO[C@H]2C3CCN(CC3)[C@H]2C(c2ccccc2)c2ccccc2)cc(C(F)(F)F)c1` [L-709210] yielded an IC50 of 1.3 nM.

From ChEMBL document CHEMBL1150016, “Quinuclidine based NK-1 antagonists 2: determination of the absolute stereochemical requirements” (Bioorg Med Chem Lett, 1993)
